Values of other authors as cited in patent US12648892B2, “Emergency eye wash” (Lebrun Labs LLC, priority 2024, dated 2026).

Assays:
eye = eye damage classification; cited from earlier work; further: key: GHS Category 1 (Chemicals that cause extreme and irreversible damage to the eye)
[1] = most extreme pH value found for each chemical; includes diluted chemicals; cited from earlier work

SMILES | in vivo GHS (eye) | pH [1]
Cc1ccccc1NC(=N)NC(=N)N [compound 92] | 1 | –
O=C([O-])c1c(Cl)c(Cl)c(Cl)c(Cl)c1-c1c2cc(Br)c(=O)c(Br)c-2oc2c(Br)c([O-])c(Br)cc12.[Na+].[Na+] [compound 34] | 1 | –
C1CCOC1 [compound 48] | 1 | 8.0
CC(C)(C)CC(C)(C)c1ccc(O)cc1 [compound 2] | 1 | –
CCCCCCCCCCCCOS(=O)(=O)[O-].[Na+] [compound 7] | 1 | –
C#CC(C)(O)CC (stereo not shown) [compound 76] | 1 | –
C=CC(=O)OCCOC [compound 79] | 1 | –
C=CC(=O)OCCOCCOCCOCCOC(=O)C=C [compound 42] | 1 | 5.2
O=S(=O)([O-])O.[Na+] [compound 65] | 1 | <1.0
Cc1c(O)cccc1O [compound 100] | 1 | –
c1c[nH]cn1 [compound 54] | 1 | 10.5
O=C(O)c1ccccc1 [compound 32] | 1 | –
O=S1(=O)OC(c2cc(Br)c(O)c(Br)c2)(c2cc(Br)c(O)c(Br)c2)c2c(Br)c(Br)c(Br)c(Br)c21 [compound 90] | 1 | –
OC1CCCCC1 [compound 47] | 1 | 6.5
CC(C)(C)c1ccc(O)c(O)c1 [compound 96] | 1 | –
CCCCCCCCCCCC[N+](C)(C)CC(O)CS(=O)(=O)[O-] (stereo not shown) [compound 71] | 1 | –
O=C(O)C(Cl)(Cl)Cl [compound 57] | 1 | <1.0
CCN(CC)CCCC(C)Nc1c2ccc(Cl)cc2nc2ccc(OC)cc12 (stereo not shown) [compound 3] | 1 | –
c1ccncc1 [compound 20] | 1 | –
CC(O)C(=O)O (stereo not shown) [compound 17] | 1 | –
CCCCOCCO [compound 46] | 1 | 7.0
O=C(OC(C(=O)O)C(OC(=O)c1ccccc1)C(=O)O)c1ccccc1 (stereo not shown) [compound 87] | 1 | –
OCc1ccccc1 [compound 16] | 1 | –
[Na+].c1nc[n-]n1 [compound 105] | 1 | –

SMILES | in vivo GHS (eye) | pH [1]
O=S(=O)(Cl)c1ccccc1 [compound 80] | 1 | –
CCCCCCCCCCCCCCCC[N+](C)(C)C.[Br-] [compound 28] | 1 | –
Oc1ccc2ccc(O)cc2c1 [compound 99] | 1 | –
[Na+].[OH-] [compound 56] | 1 | 14.0
CCC[CH2][Sn]([CH2]CCC)([CH2]CCC)[O][Sn]([CH2]CCC)([CH2]CCC)[CH2]CCC [compound 9] | 1 | –
CCCCCCCCCCCC(=O)O [compound 8] | 1 | –
CCCCCCCCCCCCCCCC[N+](C)(C)C.[Cl-] [compound 5] | 1 | –
CCCCCCCC[N+](CCCCCCCC)(CCCCCCCC)CCCCCCCC.[Br-] [compound 66] | 1 | 3.9
N#CSc1ccc(N)c([N+](=O)[O-])c1 [compound 106] | 1 | –
O=C([O-])C(=O)[O-].[Na+].[Na+] [compound 4] | 1 | –
CCCCCCCCCCCCCCCCCC[N+](C)(C)CCCCCCCCCCCCCCCCCC [compound 39] | 1 | 5.5
O=C=Nc1ccc(Cl)c(Cl)c1 [compound 107] | 1 | –
O=C(O)CO [compound 6] | 1 | –
CCCCO [compound 15] | 1 | –
CO[Si](CCCNCCN)(OC)OC [compound 95] | 1 | –
CCCCCCCCCCCC[N+](C)(C)[O-] [compound 62] | 1 | 9.0
O=c1[nH]sc2ccccc12 [compound 89] | 1 | –
CCCCCCCCCCCCCCCCCC[N+](C)(C)C [compound 60] | 1 | 4.2
CCO[Si](CCCN)(OCC)OCC [compound 52] | 1 | 11.0
CCCCCCCCCCCC(=O)[O-].[K+] [compound 59] | 1 | 10.5
OCCCCCCCCCl [compound 69] | 1 | –
CCN(CC)CCO [compound 53] | 1 | 11.5
CC(C)(O)CCC(C)(C)O [compound 68] | 1 | –
CCCCCCCCCCCC[N+](C)(C)CCOc1ccccc1.[Br-] [compound 26] | 1 | –

SMILES | in vivo GHS (eye) | pH [1]
CC(CN1c2ccccc2Sc2ccccc21)N(C)C.Cl (stereo not shown) [compound 21] | 1 | –
Nc1ccc(F)cc1 [compound 50] | 1 | 7.4
Oc1ccc(Cl)cc1Cc1ccccc1 [compound 82] | 1 | –
CCCCCCCCCCCCCCCC[n+]1ccccc1.O.[Cl-] [compound 35] | 1 | –
O=C1C2CC=CCC2C(=O)N1SC(Cl)(Cl)Cl (stereo not shown) [compound 1] | 1 | –
CC(=O)O [compound 11] | 1 | –
COC(=O)CS [compound 93] | 1 | –
Nc1cccc(N)c1 [compound 18] | 1 | –
O=C(O)c1ccc(O)cc1O [compound 64] | 1 | 3.0
CCCCC(CC)COC(=O)CC(C(=O)OCC(CC)CCCC)S(=O)(=O)[O-].[Na+] (stereo not shown) [compound 58] | 1 | 6.5
C=CC(=O)OCCO [compound 81] | 1 | –
CCC(C)(C)C(=O)O [compound 94] | 1 | –
CCN(CC)CCC#N [compound 108] | 1 | –
CCOC(=O)C(C)(C)O [compound 83] | 1 | –
CC(C=O)Cc1ccc(C(C)(C)C)cc1 (stereo not shown) [compound 38] | 1 | –
CCCCCCCCCCCCCCCC[n+]1ccccc1.[Br-] [compound 84] | 1 | –
O=C([O-])c1ccccc1O.[Na+] [compound 13] | 1 | –
O=C(O)CCC(=O)C(=O)O [compound 49] | 1 | 1.5
CC(C)(O)C(=O)O [compound 51] | 1 | 1.0
CCCOC(=O)C(C)O (stereo not shown) [compound 101] | 1 | –
C[Si](C)(CCCN)O[Si](C)(C)CCCN [compound 91] | 1 | –
CSCCC(NC(C)=O)C(=O)O (racemic) [compound 88] | 1 | –
O=C(O)Cc1cccc2ccccc12 [compound 43] | 1 | 5.0
CCCCCCCCN [compound 55] | 1 | 11.8
